Source: patent EP2402358A2, “2',3'-Didehydro-3'-deoxy-4'-ethynylothymidine derivatives for treatment infections caused by human immunodeficiency virus (HIV) multidrug resistant strains, method of their synthesis and pharmaceutically acceptable forms of drugs” (priority 2010, dated 2012)

Tests used:
deClPhR™ cells = experiment: Determination of cytotoxicity: Alamar Blue Cell Viability Assay; type: cell-based; details: Cytotoxicity; PNL4-3; deClPhR™ cells
Description: (§1) Determination of cytotoxicity: Alamar Blue™ Cell Viability Assay
(§2) The Alamar Blue™ Cell Viability Assay (Invitrogen) is a fluorimetric metod for determining the number of viable cells. The Alamar Blue Reagent contains the cell permeable non-fluorescent blue dye resazurin, which is converted to the pink and fluorescent dye resorufin in response to the action of reductases located in the cytosol, mitochondria and endoplasmic reticulum. Therefore, only living cells will convert resazurin into resorufin. Assays are performed by adding 20 µL of the Alamar Blue Reagent directly to culture wells followed by a 6-hour incubation at 37°C. The fluorescent signal is monitored using 545 nm excitation wavelength and 590 nm emission wavelength. The quantity of resofurin product as measured by fluorescence is directly proportional to the number of living cells in culture, what allows to calculate CC50 value.

[1] = as above; type: cell-based; details: deciphr cells
Description: as §1, §2

[2] = system: Wild type HIV-1 (NL4-3 cytotropic strain, CXCR4 - tropic); experiment: Determination of antiviral activity (beta-galactosidase reporter indicator cell line, deClPhR cell system), wild type virus; type: cell-based; details: Human immunodeficiency virus 1, NL43
Description: (§3) Determination of antiviral activity

[3] = system: HIV-1 virus strain Resistant 7005695; details: Resistance factor Rf=EC50 mutant / EC50 wt virus
Description: as §3
(§4) Fully infectious virus HIV-1 was produced from cloned proviral DNA reference coding either for wild-type HIV-1 or from drug-resistant virus following transfection of proviral DNA into recipient mammalian cells. Subsequent to viral protein expression and particle formation, culture supernatant was harvested and used to infect an indicator cell line. This latter cell line expresses all necessary receptors and co-receptors for HIV infection as well as the bacterial gene LacZ coding for β-galactosidase under the control of the HIV-1 long terminal repeat. In this system, amount of β-galactosidase is directly proportional to the extent of viral replication. Activity of β-galactosidase is assayed in presence of a colorless substrate which upon enzymatic conversion yields a yellow product absorbing at 405 nm. Next, variation in colorimetric readout in presence of test compounds was translated in percent viral inhibition following normalization according to absorbance values of positive (presence of anti-HIV drug) and negative (untreated) control wells included in each 96 well-plate. […] Percent inhibition data in function of drug concentration were processed by a statistical curve fitting software yielding a modeled curve from which EC50 was extrapolated.
(§5) Resistance factor Rf=EC50 mutant / EC50 wt virus

[4] = system: HIV-1 virus strain Resistant QCR8; details: Resistance factor Rf=EC50 mutant / EC50 wt virus
Description: as §3, §4, §5

Q: Which results are given for `C#C[C@@]1(COC(=O)CCCCCCCCCCCN=[N+]=[N-])C=C[C@H](n2cc(C)c(=O)[nH]c2=O)O1` [WA39, 1-(5-O-(12-azidododecanoyl)-2,3-dideoxy-2,3-didehydro-4-ethynyl-bb-D-ribofuranosyl)-thymine]?
A: CC50 (deClPhR™ cells): > 200000 nM; CC50 ([1]; cytotoxicity in deClPhR™ cells): > 200000 nM; EC50 [2]: 73 nM; Rf* [3]: 12.2; Rf* [4]: 0.8

Q: Which CC50 ([1]; Cytotoxicity, PNL4-3, deClPhR™ cells) does the source give for `C#C[C@@]1(CO)C=C[C@H](n2cc(C)c(=O)[nH]c2=O)O1` [4'-E-d4T (WA32), 2',3'-didehydro-3'-deoxy-4'-ethynylothymidine] here?
A: Its CC50 is over 200000 nM.

Q: And the EC50 [2]?
A: Its EC50 is 90 nM.

Q: And the “Rf*” value [3]?
A: The value was 17.3.

Q: What about the “Rf*” value [4] of the same molecule?
A: The value was 1.4.

Q: What does the source list for `C#C[C@@]1(COC(=O)CCCCCCCCCCSCC)C=C[C@H](n2cc(C)c(=O)[nH]c2=O)O1` [WA42]?
A: CC50 (deClPhR™ cells): > 200000 nM; CC50 ([1]; cytotoxicity in deClPhR™ cells): > 200000 nM; EC50 [2]: 43 nM; Rf* [3]: 16.1; Rf* [4]: 2.3

Q: Which results are given for `C#C[C@@]1(COC(=O)CCCCCCCCCCCBr)C=C[C@H](n2cc(C)c(=O)[nH]c2=O)O1` [WA38, 1-(5-O-(12-bromododecanoyl)-2,3-dideoxy-2,3-didehydro-4-ethynyl-bb-D-ribofuranosyl)-thymine]?
A: CC50 (deClPhR™ cells): > 200000 nM; CC50 ([1]; cytotoxicity in deClPhR™ cells): > 200000 nM; EC50 [2]: 130 nM; Rf* [3]: 10.4; Rf* [4]: 1

Q: For `C#C[C@@]1(COC(=O)CCCCCCCCCCCCC)C=C[C@H](n2cc(C)c(=O)[nH]c2=O)O1` [WA37, 1-(2,3-dideoxy-2,3-didehydro-4-ethynyl-5-O-tetradodecanoyl-bb-D-ribofuranosyl)-thymine], which CC50 (deClPhR™ cells) is on record?
A: The CC50 was over 200000 nM.

Q: And the CC50 ([1]; cytotoxicity in deClPhR™ cells)?
A: Its CC50 is over 200000 nM.

Q: What about the EC50 [2] of the same molecule?
A: The EC50 was 54 nM.

Q: What about the “Rf*” value [3] of the same molecule?
A: The value was 23.7.

Q: What about the “Rf*” value [4] of the same molecule?
A: Its value is 1.3.

Q: With `C#C[C@@]1(COC(=O)CCCCCCCCCCCOC)C=C[C@H](n2cc(C)c(=O)[nH]c2=O)O1` [WA40, 1-(2,3-dideoxy-2,3-didehydro-4-ethynyl-5-O-(12-methoxydodecanoyl)-bb-D -ribofuranosy)-thymine] as the molecule, how does the CC50 (deClPhR™ cells) read?
A: The CC50 was over 200000 nM.

Q: And the CC50 ([1]; cytotoxicity in deClPhR™ cells)?
A: Its CC50 is over 200000 nM.

Q: What about the EC50 [2] of the same molecule?
A: The EC50 was 48 nM.

Q: And the “Rf*” value [3]?
A: Its value is 17.4.

Q: What about the “Rf*” value [4] of the same molecule?
A: Its value is 2.3.
